Measurements published in patent US20130274270A1, “POLYMORPHS OF 3-CHLORO-4[(2R)-2-(4-CHLOROPHENYL)-4-[(1R)-1-(4-CYANOPHENYL)ETHYL]-1-PIPERAZINYL]-BENZONITRILE, PHARMACEUTICAL COMPOSITIONS AND METHOD OF USE COMPRISING SAID POLYMORPHS, AND A PROCESS FOR PREPARING THEM” (priority 2010, published 2013).
Structures can show the parent of a compound that is named as a salt.

How the values were obtained:
Format in all cases: physicochemical
[1] = Thermogravimetric analysis (TGA)
Protocol: (§1) All powder X-ray diffraction (PXRD) data was collected using a Rigaku Miniflex instrument. Samples were analyzed on silicon zero background holders from 2 to 40 degrees two theta with a step size of 0.02 degrees two theta and a scan time of 0.6 seconds per step. Differential scanning calorimetry (DSC) data was collected using a Q100 DSC from TA Instruments. Samples were sealed in hermetic aluminum pans with two pinholes in the lid. All were analyzed under nitrogen purge. Vapor sorption analysis was performed using a SGA-100 from VTI Scientific Instruments. Thermogravimetric analysis (TGA) data was collected on a Q500 TGA from TA Instruments. Samples were analyzed in platinum pans under a nitrogen purge.

Photosensitivity = conditions: especially in solution
[2] = Competition slurry experiments
Protocol: Competition slurry experiments were conducted by combining approximately 100 milligrams of starting material with 1 milliliter of solvent in a 4 milliliter amber glass vial. A polytetrafluoroethylene coated magnetic stir bar was added to each vial. The slurry sample was stirred for one day and checked to confirm solids were still present. The sample was then seeded with forms identified during the polymorph screening and continued stirring at room temperature for 9 days. Solids were collected and analyzed to determine their crystal form.
The evaporative crystallization experiments from solutions produced another polymorph, termed Form II, and two suspected solvates or hydrates. Competition slurries were prepared with Form I, Form II and the suspected solvates or hydrates to confirm they were metastable with respect to Form 1. The competition slurries were prepared by dispersing Form II in isopropanol, a water/methanol mixture at a water activity of 0.5, and water.
A variable-temperature competition slurry was repeated using Forms I and III by suspending approximately 100 mg of each form in 2 milliliters of isopropanol at 4° C., room temperature, 40° C., and 50° C. The slurries were allowed to stir for 11 days and checked by PXRD. […] Afterwards, the solutions were seeded with Form I and stirred for 1 day.

[3] = Solvent-mediated polymorphic transformation experiments (slurry / slow evaporation, PXRD)
Protocol: Solvent-mediated polymorphic transformation experiments were conducted by combining approximately 100 mg of starting material with 1 milliliter of solvent in a 4 mL amber glass vial. A polytetrafluoroethylene coated magnetic stir bar was added to each vial. For suspensions, the vials were sealed with polytetrafluoroethylene-lined caps and stirred using magnetic stir plates at 4° C., room temperature, or 50° C. for 14 days. For solutions, the vials were covered with aluminum foil and the solutions were slowly evaporated for 14 days. Solids were collected and analyzed for changes in crystal form. For this work, both slurry and evaporative crystallization was performed. Slurry experiments are utilized to identify the thermodynamically stable form while evaporative crystallizations favor the identification of metastable forms.

[4] = Temperature-solubility profile in isopropanol (Crystal 16)
Protocol: To further characterize Form III, temperature-solubility profiles were constructed for both Form I and III. Different amounts of each form were suspended in 1 milliliter of isopropanol to prepare solutions of varying concentrations. The experiments were conducted on Crystal 16 to generate a temperature-solubility profile. The suspensions were slowly heated from 20° C. to 75° C. at 0.1° C./min and then cooled to 0° C. at a rate of 0.1° C. /min. The stirring rate was 700 rpm during the entire experiment.

[5] = Change in crystal form as a function of pressure (Carver press); conditions: 13 mm die, approximately 4000 pounds, approximately 30 seconds
Protocol: Change in crystal form as a function of pressure was evaluated by pressing 86.0 mg of material in a 13 millimeter die at approximately 4000 pounds for approximately 30 seconds with a carver press.

[6] = Change in crystal form as a function of heating (DSC heating rates); conditions: DSC at 2° C., 10° C. and 20° C. per minute
Protocol: Change in crystal form as a function of heating was evaluated by analyzing samples of the material using the DSC at heating rates of 2, 10, and 20° C. per minute.

[7] = Change in crystal form as a function of milling; conditions: ground for 5 seconds at 3800 rpm
Protocol: Change in crystal form as a function of milling was conducted by grinding 79.2 milligrams of material in a stainless steel liner with a stainless steel ball pestle using a high speed mixer and amalgamator. The material was ground for 5 seconds at 3800 rpm.

DSC, heat of fusion rule = conditions: monotropically related forms
Protocol: as §1

[8] = Vapor sorption analysis (change in crystal form as a function of moisture); conditions: 25° C.
Protocol: as §1
Change in crystal form as a function of moisture was evaluated by a SGA-100 vapor sorption instrument from VTI Scientific Instruments. Approximately 10 to 15 mg of material was exposed to a relative humidity range from 5% to 95% at 25° C. for 2 cycles.

[9] = Acetonitrile, RT/Solution, slowly evaporated 14 days
[10] = Dichloromethane, RT/Solution, slowly evaporated 14 days
[11] = Isopropanol, RT/Suspension, stirred 14 days
[12] = Water, RT/Suspension, stirred 14 days
[13] = Water/Methanol, 4° C./Suspension, stirred 14 days
[14] = Water/Methanol, 50° C./Suspension, stirred 14 days
[15] = Water/Methanol, RT/Suspension, stirred 14 days

Structure (SMILES)	sensitivity to light (Photosensitivity)	decomposition temperature [1]	PXRD Result [3, 9]	PXRD Result [3, 10]	PXRD Result [3, 11]	PXRD Result [3, 12]	PXRD Result [3, 13]	PXRD Result [3, 14]	PXRD Result [3, 15]	Thermodynamic stability by competition slurry experiments [2]	further results
C[C@H](c1ccc(C#N)cc1)N1CCN(c2ccc(C#N)cc2Cl)[C@H](c2ccc(Cl)cc2)C1 [xinafoate salt]											weight loss (TGA) ([1]; at 146° C.): 0.2%; behaviour of the salt on melting (large weight loss at melt) ([1]; melt at 163.5° C.): disproportionates or decomposes with melting; weight loss (TGA) ([1]; starting from 161° C. and ending at 236° C.): 27.2%
CC(c1ccc(C#N)cc1)N1CCN(c2ccc(C#N)cc2Cl)C(c2ccc(Cl)cc2)C1 (stereo not drawn) [Formula II]	photosensitive										
C[C@H](c1ccc(C#N)cc1)N1CCN(c2ccc(C#N)cc2Cl)[C@H](c2ccc(Cl)cc2)C1 [Compound A, 3-Chloro-4[(2R)-2-(4-chlorophenyl)-4-[(1R)-1-(4-cyanophenyl)ethyl]-1-piperazinyl]-benzonitrile]	photosensitive										
C[C@H](c1ccc(C#N)cc1)N1CCN(c2ccc(C#N)cc2Cl)[C@H](c2ccc(Cl)cc2)C1 [Form II, 3-Chloro-4[(2R)-2-(4-chlorophenyl)-4-[(1R)-1-(4-cyanophenyl)ethyl]-1-piperazinyl]-benzonitrile]		310 °C	Form II	Form II	Form I	Form II	Form I	Form I	Form I		Crystal form of solids collected from competition slurry ([2]; Form II dispersed in isopropanol, seeded with the other forms, room temperature): consistent with Form I; Crystal form of solids collected from competition slurry ([2]; Form II dispersed in water, seeded, room temperature): stayed as Form II; Crystal form of solids collected from competition slurry ([2]; Form II dispersed in water/methanol mixture at a water activity of 0.5, seeded, room temperature): consistent with Form I; weight loss (TGA) ([1]; at 226° C.): 0.6%
C[C@H](c1ccc(C#N)cc1)N1CCN(c2ccc(C#N)cc2Cl)[C@H](c2ccc(Cl)cc2)C1 [Form III, 3-Chloro-4[(2R)-2-(4-chlorophenyl)-4-[(1R)-1-(4-cyanophenyl)ethyl]-1-piperazinyl]-benzonitrile]		312 °C								the most stable form	thermodynamic stability from temperature-solubility profile ([4]; above 29.4° C.): the most thermodynamically stable anhydrous crystalline form; relative solubility ([4]; at temperatures greater than 29.4° C.): less soluble than Form I; PXRD result of variable-temperature competition slurry of Forms I and III ([2]; about 100 mg of each form in 2 mL isopropanol at 4° C., room temperature, 40° C. and 50° C., 11 days): Form III was formed under all conditions; PXRD result after seeding with Form I ([2]; isopropanol slurries seeded with Form I and stirred for 1 day): remained as Form III; weight loss (TGA) ([1]; at 228° C.): 0.07%
C[C@H](c1ccc(C#N)cc1)N1CCN(c2ccc(C#N)cc2Cl)[C@H](c2ccc(Cl)cc2)C1 [Form I, 3-Chloro-4[(2R)-2-(4-chlorophenyl)-4-[(1R)-1-(4-cyanophenyl)ethyl]-1-piperazinyl]-benzonitrile]		above 295 °C	Form 2	Form 2	Form 1	Form 1	Form 1	Form 1	Form 1	a stable form	change in crystal form after pressing [5]: no significant change in the crystal form; change in crystal form as a function of heating rate [6]: no change in the crystal form; change in crystal form after milling [7]: no significant change in the crystal form; relative thermodynamic stability of Form I and Form II (heat of fusion rule) (DSC, heat of fusion rule): the more thermodynamically stable; polymorphic form change after vapor sorption analysis (PXRD before and after) ([8]; 5% to 95% relative humidity): no polymorphic form change; moisture absorbed by weight ([8]; between 5% and 95% relative humidity, 2 cycles): 0.07%; weight loss (TGA) ([1]; at 204° C.): 0.6%; PXRD Result ([3]; Toluene, 50° C./Solution, 14 days): Amorphous; Thermodynamic stability indicated by slurry experiments ([3]; all slurry experiments except those in water, regardless of starting form, water activity or temperature): the most thermodynamically stable form
